Broadly, the EC50 is the midpoint of the concentration-response curve.

This assay addresses T1, human IL-17AA (Homo sapiens, UniProt Q16552).
T1 construct: host or cells: HEK (human embryonic kidney) cells
T1 sequence (Q16552 24-155) 1: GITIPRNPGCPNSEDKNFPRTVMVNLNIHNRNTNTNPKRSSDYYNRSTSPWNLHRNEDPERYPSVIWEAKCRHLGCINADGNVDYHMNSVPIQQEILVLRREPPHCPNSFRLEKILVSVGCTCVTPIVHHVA
T1 sequence (Q16552 24-155) 2: T1 sequence (Q16552 24-155) 1
Nature of the assay: IL-8 release assay in human epithelial keratinocytes adult (HEKa). The note with it: 3 ng/ml human IL-17AA + 10 ng/ml human TNFalpha, 68-72 h, IL-8 by HTRF, read-out: Rel EC50 L-8 release assay. It is filed as cell-based. How it is done:
Example: IL-8 release assay in human epithelial keratinocytes adult (HEKa) Keratinocytes were seeded at 3500 cells/well in 384-well ViewPlates (Perkin Elmer) in Epilife medium (Thermo Fisher) containing human keratinocyte growth supplement (HKGS) without hydrocortisone and incubated in a humid incubator at 37° C., 5% CO2, overnight. The following day growth medium was removed and 25 μl fresh Epilife 10 medium added. 75 nl test compound in 100% DMSO was added into each well reserved
for test compounds, by the use of acoustic pipetting. The remaining wells received an equal volume of DMSO only, as vehicle control, or terfenadine in DMSO, as a positive control for any cytotoxic compounds. Subsequently, another 25 μl Epilife medium was added to each well. Finally, wells containing test compounds and wells prepared to yield 15 maximum stimulation received 25 μl of 9 ng/ml recombinant, human embryonic kidney cell (HEK)-derived human IL-17AA+30 ng/ml human TNF-alpha, in Epilife medium. Wells prepared to define 100% inhibition of IL-17 effects received 25 μl of 30 ng/ml human TNF-alpha alone, in Epilife medium. Final concentrations were 3 ng/ml HEKhuman IL-17AA+10 ng/ml human TNFalpha (maximum stimulation) and 10 ng/ml 20 human TNFalpha alone (100% inhibition, Emax), respectively. Cells were incubated for 68-72 h in the incubator. IL-8 released from the cells was measured by the use of a commercial homogenous time-resolved fluorescence (HTRF) assay (CisBio). 2 μl cell culture supernatant was transferred to a 384-well Proxiplate. 5 μl HTRF reagent was added and the plates incubated sealed in the dark for 3-22 h at room temperature. Time resolved fluorescence was read at 665 vs 620 nm, with excitation at 320 nm, and IL-8 levels calculated as percent of controls. Reduction of the amount of secreted IL-8 indicates decreased IL-17 signaling. Concentration response curves were fitted by the use of a four-parameter logistic equation. Relative IC50 and Emax were reported from 5 curves showing acceptable fit (r2>0.9). Cytotoxicity was measured in the cell-containing
Compounds of the present invention were tested in the IL-8 release assay in human epithelial keratinocytes.
(In general: Time-resolved FRET reads energy transfer from a long-lived donor to a nearby acceptor.)
Take `CC(C)n1cc(-c2cccc(C(c3ccccc3)C(NC(=O)c3ccnn3C)C(=O)Nc3ccc(-c4cncn4C)cc3)c2)ccc1=O` (single isomer, unassigned) [Example 230, N-[1-[[3-(1-isopropyl-6-oxo-3-pyridyl)phenyl]-phenyl-methyl]-2-[4-(3-methylimidazol-4-yl)anilino]-2-oxo-ethyl]-2-methyl-pyrazole-3-carboxamide]: the EC50 lay within 0.1 to 1 µM. In the case of `CC(C)n1cc(-c2cccc(C(c3ccccc3)C(NC(=O)OC3CC3)C(=O)Nc3ccc(-c4cncn4C)cc3)c2)ccc1=O` (single isomer, unassigned) [Example 231, Cyclopropyl N-[1-[[3-(1-isopropyl-6-oxo-3-pyridyl)phenyl]-phenyl-methyl]-2-[4-(3-methylimidazol-4-yl)anilino]-2-oxo-ethyl]carbamate] it was 0.1 to 1 µM. In the case of `Cc1n[nH]cc1-c1ccc(NC(=O)C(NC(=O)c2ccnn2C)C(c2ccccc2)c2cccc(-c3ccc(=O)n(C(C)C)c3)c2)cc1` (single isomer, unassigned; diastereomer 1) [Example 235, N-[1-[[3-(1-isopropyl-6-oxo-3-pyridyl)phenyl]-phenyl-methyl]-2-[4-(3-methyl-1H-pyrazol-4-yl)anilino]-2-oxo-ethyl]-2-methyl-pyrazole-3-carboxamide (Diastereomer 1)] it was below 0.1 µM; in that of `Cc1n[nH]cc1-c1ccc(NC(=O)C(NC(=O)OC2CC2)C(c2ccccc2)c2cccc(-c3ccc(=O)n(C(C)C)c3)c2)cc1` (single isomer, unassigned; diastereomer 1) [Example 242, cyclopropyl N-[1-[[3-(1-isopropyl-6-oxo-3-pyridyl)phenyl]-phenyl-methyl]-2-[4-(3-methyl-1H-pyrazol-4-yl)anilino]-2-oxo-ethyl]carbamate (Diastereomer 1)], above 1 µM; in that of `CC(C)n1cc(-c2cccc(C(c3ccccc3)C(NC(=O)c3ccnn3C)C(=O)Nc3ccc(-c4cncn4C)cc3)c2)ccc1=O` (single isomer, unassigned; diastereomer 2) [Example 232, N-[1-[[3-(1-isopropyl-6-oxo-3-pyridyl)phenyl]-phenyl-methyl]-2-[4-(3-methylimidazol-4-yl)anilino]-2-oxo-ethyl]-2-methyl-pyrazole-3-carboxamide (Diastereomer 2)], above 1 µM.

For `Cc1n[nH]cc1-c1ccc(NC(=O)C(NC(=O)c2ccnn2C)C(c2ccccc2)c2cccc(-c3ccc(=O)n(C(C)C)c3)c2)cc1` (single isomer, unassigned; diastereomer 2) [Example 236, N-[1-[[3-(1-isopropyl-6-oxo-3-pyridyl)phenyl]-phenyl-methyl]-2-[4-(3-methyl-1H-pyrazol-4-yl)anilino]-2-oxo-ethyl]-2-methyl-pyrazole-3-carboxamide (Diastereomer 2)], the EC50 is below 0.1 µM. In the case of `CC(C)n1cc(-c2cccc(C(c3ccccc3)C(NC(=O)OC3CC3)C(=O)Nc3ccc(-c4cncn4C)cc3)c2)ccc1=O` (single isomer, unassigned; diastereomer 2) [Example 239, cyclopropyl N-[1-[[3-(1-isopropyl-6-oxo-3-pyridyl)phenyl]-phenyl-methyl]-2-[4-(3-methylimidazol-4-yl)anilino]-2-oxo-ethyl]carbamate (Diastereomer 2)] it was 0.1 to 1 µM; in that of `Cc1n[nH]cc1-c1ccc(NC(=O)C(NC(=O)OC2CC2)C(c2ccccc2)c2cccc(-c3ccc(=O)n(C(C)C)c3)c2)cc1` (single isomer, unassigned; diastereomer 2) [Example 243, cyclopropyl N-[1-[[3-(1-isopropyl-6-oxo-3-pyridyl)phenyl]-phenyl-methyl]-2-[4-(3-methyl-1H-pyrazol-4-yl)anilino]-2-oxo-ethyl]carbamate (Diastereomer 2)], 0.1 to 1 µM. Consider `CC(C)n1cc(-c2cccc(C(c3ccccc3)C(NC(=O)c3ccnn3C)C(=O)Nc3ccc(-c4cncn4C)cc3)c2)ccc1=O` (single isomer, unassigned; diastereomer 3) [Example 233, N-[1-[[3-(1-isopropyl-6-oxo 3-pyridyl)phenyl]-phenyl-methyl]-2-[4-(3-methylimidazol-4-yl)anilino] 2-oxo-ethyl]-2-methyl-pyrazole-3-carboxamide (Diastereomer 3)], for which the EC50 is above 1 µM.

As to `Cc1n[nH]cc1-c1ccc(NC(=O)C(NC(=O)c2ccnn2C)C(c2ccccc2)c2cccc(-c3ccc(=O)n(C(C)C)c3)c2)cc1` (single isomer, unassigned; diastereomer 3) [Example 237, N-[1-[[3-(1-isopropyl-6-oxo-3-pyridyl)phenyl]-phenyl-methyl]-2-[4-(3-methyl-1H-pyrazol-4-yl)anilino]-2-oxo-ethyl]-2-methyl-pyrazole-3-carboxamide (Diastereomer 3)], the EC50 was above 1 µM.

Consider `CC(C)n1cc(-c2cccc(C(c3ccccc3)C(NC(=O)OC3CC3)C(=O)Nc3ccc(-c4cncn4C)cc3)c2)ccc1=O` (single isomer, unassigned; diastereomer 3) [Example 240, cyclopropyl N-[1-[[3-(1-isopropyl-6-oxo-3-pyridyl)phenyl]-phenyl-methyl]-2-[4-(3-methylimidazol-4-yl)anilino]-2-oxo-ethyl]carbamate (Diastereomer 3)], for which the EC50 is above 1 µM.

In the case of `Cc1n[nH]cc1-c1ccc(NC(=O)C(NC(=O)OC2CC2)C(c2ccccc2)c2cccc(-c3ccc(=O)n(C(C)C)c3)c2)cc1` (single isomer, unassigned; diastereomer 3) [Example 244, cyclopropyl N-[1-[[3-(1-isopropyl-6-oxo-3-pyridyl)phenyl]-phenyl-methyl]-2-[4-(3-methyl-1H-pyrazol-4-yl)anilino]-2-oxo-ethyl]carbamate (Diastereomer 3)], the EC50 is above 1 µM. As for `CC(C)n1cc(-c2cccc(C(c3ccccc3)C(NC(=O)c3ccnn3C)C(=O)Nc3ccc(-c4cncn4C)cc3)c2)ccc1=O` (single isomer, unassigned; diastereomer 4) [Example 234, N-[1-[[3-(1-isopropyl-6-oxo-3-pyridyl)phenyl]-phenyl-methyl]-2-[4-(3-methylimidazol-4-yl)anilino]-2-oxo-ethyl]-2-methyl-pyrazole-3-carboxamide (Diastereomer 4)], the figure is 0.1 to 1 µM; as for `Cc1n[nH]cc1-c1ccc(NC(=O)C(NC(=O)c2ccnn2C)C(c2ccccc2)c2cccc(-c3ccc(=O)n(C(C)C)c3)c2)cc1` (single isomer, unassigned; diastereomer 4) [Example 238, N-[1-[[3-(1-isopropyl-6-oxo-3-pyridyl)phenyl]-phenyl-methyl]-2-[4-(3-methyl-1H-pyrazol-4-yl)anilino]-2-oxo-ethyl]-2-methyl-pyrazole-3-carboxamide (Diastereomer 4)], 0.1 to 1 µM.

Take `CC(C)n1cc(-c2cccc(C(c3ccccc3)C(NC(=O)OC3CC3)C(=O)Nc3ccc(-c4cncn4C)cc3)c2)ccc1=O` (single isomer, unassigned; diastereomer 4) [Example 241, cyclopropyl N-[1-[[3-(1-isopropyl-6-oxo-3-pyridyl)phenyl]-phenyl-methyl]-2-[4-(3-methylimidazol-4-yl)anilino]-2-oxo-ethyl]carbamate (Diastereomer 4)]: the EC50 is above 1 µM.

On to `Cc1n[nH]cc1-c1ccc(NC(=O)C(NC(=O)OC2CC2)C(c2ccccc2)c2cccc(-c3ccc(=O)n(C(C)C)c3)c2)cc1` (single isomer, unassigned; diastereomer 4) [Example 245, cyclopropyl N-[1-[[3-(1-isopropyl-6-oxo-3-pyridyl)phenyl]-phenyl-methyl]-2-[4-(3-methyl-1H-pyrazol-4-yl)anilino]-2-oxo-ethyl]carbamate (Diastereomer 4)], for which the EC50 was below 0.1 µM. In the case of `Cc1n[nH]c(C)c1-c1ccc(NC(=O)[C@@H](NC(=O)c2ccnn2C)[C@@H]2CCc3ccc(-c4ccc5c(c4)CNC5)cc32)cc1` [Example 1, N-[(1S)-2-[4-(3,5-dimethyl-1H-pyrazol-4-yl)anilino]-1-[(1R)-6-isoindolin-5-ylindan-1-yl]-2-oxo-ethyl]-2-methyl-pyrazole-3-carboxamide] it was below 0.1 µM. As for `Cc1n[nH]c(C)c1-c1ccc(NC(=O)[C@@H](NC(=O)c2ccnn2C)[C@@H]2CCc3ccc(-c4ccc(CN5CCOCC5)cc4)cc32)cc1` [Example 2, N-[(1S)-2-[4-(3,5-dimethyl-1H-pyrazol-4-yl)anilino]-1-[(1R)-6-[4-(morpholinomethyl)phenyl]indan-1-yl]-2-oxo-ethyl]-2-methyl-pyrazole-3-carboxamide], the figure is below 0.1 µM.

The record behind these values is patent US20220162191A1, “SMALL MOLECULE MODULATORS OF IL-17” (LEO PHARMA A/S, priority 2019, published 2022).
